The text below walks through data of patent US4017607A.

The test system of experiment [1] is Diplococcus pneumoniae Type III. In words: Minimum inhibitory concentration, serial dilution method. Format: cell-based. The note with it: Streptococcus pneumoniae; Diplococcus pneumoniae Type III; 24 hours, 37° C; read-out: Minimum Inhibitory Concentration.
The test system of experiment [2] is Corynebacterium diphtheriae Type gravis. The description is as above. Format: cell-based. The note with it: Corynebacterium diphtheriae Type gravis; 24 hours, 37° C; read-out: Minimum Inhibitory Concentration.
The test system of experiment [3] is Bacillus subtilis PCI 219. The experiment is described as above. The format is cell-based. As to conditions: PCI219; Bacillus subtilis PCI 219; 24 hours, 37° C; read-out: Minimum Inhibitory Concentration.
In experiment [4] the test system is Staphylococcus aureus Terajima. The experiment is described as above. Format: cell-based. As to conditions: read-out: Minimum Inhibitory Concentration.
Experiment [5] relates to Diplococcus pneumoniae Type I. The experiment is described as above. Format: cell-based. As to conditions: Streptococcus pneumoniae; Diplococcus pneumoniae Type I; 24 hours, 37° C; read-out: Minimum Inhibitory Concentration.
In experiment [6] the test system is Streptococcus hemolyticus D-90. Described as above. The format is cell-based. The note with it: Streptococcus pyogenes, read-out: Minimum Inhibitory Concentration.
In experiment [7] the test system is Bacillus anthracis No. 119. In words: microbe, parasite or virus in culture. The format is cell-based. As to conditions: NO.119, 24 h, read-out: Minimum Inhibitory Concentration.
For experiment [8], the system named is Streptococcus pyogenes D-58. Nature of the experiment: Minimum inhibitory concentration, serial dilution method. As to conditions: D58; Streptococcus pyogenes D-58; 24 hours, 37° C; read-out: Minimum Inhibitory Concentration. Format: cell-based.
Experiment [9] deals with Staphylococcus albus 1200A. The description is as above. Format: cell-based. The note with it: read-out: Minimum Inhibitory Concentration.
In experiment [10] the test system is Corynebacterium diphtheriae Type intermedius. The experiment is described as above. Format: cell-based. As to conditions: Corynebacterium diphtheriae Type intermedius; 24 hours, 37° C; read-out: Minimum Inhibitory Concentration.
In experiment [11] the test system is Staphylococcus aureus Smith. The experiment is described as above. As to conditions: Staphylococcus aureus Smith; 24 hours, 37° C; read-out: Minimum Inhibitory Concentration. Format: cell-based.
For experiment [12], the system named is Sarcina lutea. The experiment is described as above. As to conditions: Micrococcus luteus; Sarcina lutea; 24 hours, 37° C; read-out: Minimum Inhibitory Concentration. The format is cell-based.
For experiment [13], the system named is Bacillus subtilis ATCC 6633. The description is as above. The format is cell-based. As to conditions: read-out: Minimum Inhibitory Concentration.
Experiment [14] has as its system Staphylococcus aureus 209P. In words: Minimum inhibitory concentration, serial dilution method, Brain Heart Infusion broth. The format is cell-based. The note with it: read-out: Minimum Inhibitory Concentration.
In experiment [15] the test system is Streptococcus hemolyticus Cook. Nature of the experiment: Minimum inhibitory concentration, serial dilution method. The format is cell-based. The note with it: Streptococcus pyogenes; Streptococcus hemolyticus Cook; 24 hours, 37° C; read-out: Minimum Inhibitory Concentration.
In experiment [16] the test system is Staphylococcus aureus 209P. As to conditions: 7th day, 10 mice per group.
Experiment [17] deals with Streptococcus faecalis ATCC 8043. Nature of the experiment: Minimum inhibitory concentration, serial dilution method. Format: cell-based. The note with it: Enterococcus faecalis, read-out: Minimum Inhibitory Concentration.
The mark [18] stands for this setting: ATCC6633, Bacillus subtilis ATCC 6633, 24 hours, 37° C.
Where [19] appears, read: Staphylococcus aureus, 209P, 24 h.
The mark [20] stands for this setting: ATCC8043, Streptococcus faecalis ATCC 8043, 24 hours, 37° C.
Where [21] appears, read: Staphylococcus albus 1200A, 24 hours, 37° C.
Setting [22] is: Staphylococcus aureus Terajima, 24 hours, 37° C.
The mark [23] stands for this setting: D90, Streptococcus hemolyticus D-90, 24 hours, 37° C.
Setting [24] is: Staphylococcus aureus 209P, 24 hours, 37° C.

Converted amounts (≈) assume the structure as drawn. Like-named read-outs stand apart in the source and are kept apart here.

With `CCC(=O)OC1CC(=O)OC(C)CC=CC=CC(OC(C)=O)C(C)CC(CC=O)C(OC2OC(C)C(OC3CC(C)(O)C(OC(=O)CC)C(C)O3)C(N(C)C)C2OC(C)=O)C1OC` (stereo not drawn) [9,2'-di-acetyl SF-837 substance, reference compound], the MIC in experiment [1] amounted to 0.09 µg/mL (≈ 0.1 µM); in experiment [2], 0.39 µg/mL (≈ 0.434 µM); in experiment [3] it was 0.78 µg/mL (≈ 0.869 µM); in experiment [4] (Staphylococcus aureus, 24 h) it was 1.56 µg/mL (≈ 1.74 µM); in experiment [5], 0.09 µg/mL (≈ 0.1 µM); in [6] (D90, 24 h), 1.56 µg/mL (≈ 1.74 µM). In addition, the MIC in [7] is 1.56 µg/mL (≈ 1.74 µM); in experiment [8], 0.19 µg/mL (≈ 0.212 µM); in [9] (Staphylococcus, 1200A, 24 h), 1.56 µg/mL (≈ 1.74 µM); in experiment [10] it was 0.19 µg/mL (≈ 0.212 µM); in experiment [11], 0.39 µg/mL (≈ 0.434 µM); in experiment [12], 0.19 µg/mL (≈ 0.212 µM). Moreover, the MIC in experiment [13] (setting [18]) is 3.12 µg/mL (≈ 3.47 µM); in experiment [14] (setting [19]), 1.56 µg/mL (≈ 1.74 µM); in experiment [15], 0.19 µg/mL (≈ 0.212 µM); in [17] (setting [20]), 3.12 µg/mL (≈ 3.47 µM). For the same molecule, the entries for the “Rate of surviving mice in each group of mice” value (shortened to “Rate of surviving mice”) in experiment [16] (100 mg/kg oral) and in experiment [16] (200 mg/kg oral) were 0/10 and 6/10, respectively.

For the molecule `CCC(=O)OC1CC(=O)OC(C)CC=CC=CC(OC(C)=O)C(C)CC(CC=O)C(OC2OC(C)C(OC3CC(C)(O)C(OC(=O)CC)C(C)O3)C(N(C)C)C2O)C1OC` (stereo not drawn) [9-mono-acetyl SF-837 substance, reference compound], the MIC stood at 0.04 µg/mL (≈ 0.0467 µM) in [1]; 0.19 µg/mL (≈ 0.222 µM) in [2]; 0.78 µg/mL (≈ 0.911 µM) in experiment [3]; 1.56 µg/mL (≈ 1.82 µM) in experiment [4] (Staphylococcus aureus, 24 h); 0.04 µg/mL (≈ 0.0467 µM) in experiment [5]; 1.56 µg/mL (≈ 1.82 µM) in experiment [6] (D90, 24 h). The MIC in experiment [7] was 1.56 µg/mL (≈ 1.82 µM); in [8] it was 0.39 µg/mL (≈ 0.456 µM); in [9] (setting [21]), 0.78 µg/mL (≈ 0.911 µM); in [10] it was 0.19 µg/mL (≈ 0.222 µM); in experiment [11], 0.78 µg/mL (≈ 0.911 µM); in [12], 0.09 µg/mL (≈ 0.105 µM). The MIC in experiment [13] (Bacillus subtilis, ATCC6633, 24 h) is 1.56 µg/mL (≈ 1.82 µM); in [14] (setting [19]), 1.56 µg/mL (≈ 1.82 µM); in experiment [15], 0.39 µg/mL (≈ 0.456 µM); in experiment [17] (ATCC8043, 24 h) it was 1.56 µg/mL (≈ 1.82 µM). Besides, the “Rate of surviving mice” value in experiment [16] (100 mg/kg oral) is reported as 5/10; in experiment [16] (200 mg/kg oral), 8/10.

In the case of `CCC(=O)OC1CC(=O)OC(C)CC=CC=CC(OC(C)=O)C(C)CC(CC=O)C(OC2OC(C)C(OC3CC(C)(OC(=O)CC)C(OC(C)=O)C(C)O3)C(N(C)C)C2O)C1OC` (stereo not drawn) [Compound No. 1], the MIC in [1] stood at 0.09 µg/mL (≈ 0.1 µM); in experiment [2], 0.19 µg/mL (≈ 0.212 µM); in experiment [3] it was 0.78 µg/mL (≈ 0.869 µM); in experiment [4] (setting [22]) it was 3.12 µg/mL (≈ 3.47 µM); in [5] it was 0.09 µg/mL (≈ 0.1 µM); in [6] (setting [23]), 0.78 µg/mL (≈ 0.869 µM). Moreover, the MIC in [7] stood at 0.78 µg/mL (≈ 0.869 µM); in experiment [8], 0.19 µg/mL (≈ 0.212 µM); in experiment [9] (setting [21]), 1.56 µg/mL (≈ 1.74 µM); in [10], 0.19 µg/mL (≈ 0.212 µM); in [11], 0.39 µg/mL (≈ 0.434 µM); in experiment [12] it was 0.09 µg/mL (≈ 0.1 µM). For the same molecule, the MIC in [13] (setting [18]) was determined as 1.56 µg/mL (≈ 1.74 µM); in [14] (setting [24]) it was 1.56 µg/mL (≈ 1.74 µM); in experiment [15], 0.19 µg/mL (≈ 0.212 µM); in [17] (setting [20]), 0.78 µg/mL (≈ 0.869 µM). The entries for the “Rate of surviving mice” value in experiment [16] (100 mg/kg oral) and in experiment [16] (200 mg/kg oral) were 6/10 and 10/10, respectively.

For the molecule `CCC(=O)OC1CC(=O)OC(C)CC=CC=CC(OC(C)=O)C(C)CC(CC=O)C(OC2OC(C)C(OC3CC(C)(OC(C)=O)C(OC(=O)CC)C(C)O3)C(N(C)C)C2O)C1OC` (stereo not drawn) [Compound No. 2], the MIC was 0.09 µg/mL (≈ 0.1 µM) in experiment [1]; 0.19 µg/mL (≈ 0.212 µM) in experiment [2]; 0.78 µg/mL (≈ 0.869 µM) in experiment [3]; 3.12 µg/mL (≈ 3.47 µM) in [4] (setting [22]); 0.09 µg/mL (≈ 0.1 µM) in experiment [5]; 0.78 µg/mL (≈ 0.869 µM) in experiment [6] (setting [23]). In addition, the MIC in experiment [7] was determined as 0.78 µg/mL (≈ 0.869 µM); in [8] it was 0.19 µg/mL (≈ 0.212 µM); in [9] (setting [21]), 1.56 µg/mL (≈ 1.74 µM); in experiment [10], 0.19 µg/mL (≈ 0.212 µM); in experiment [11] it was 0.39 µg/mL (≈ 0.434 µM); in experiment [12], 0.09 µg/mL (≈ 0.1 µM). The MIC in [13] (setting [18]) amounted to 1.56 µg/mL (≈ 1.74 µM); in experiment [14] (setting [24]) it was 1.56 µg/mL (≈ 1.74 µM); in experiment [15] it was 0.19 µg/mL (≈ 0.212 µM); in experiment [17] (setting [20]), 0.78 µg/mL (≈ 0.869 µM). Further, the “Rate of surviving mice” value is 8/10 in [16] (100 mg/kg oral) and 10/10 in experiment [16] (200 mg/kg oral).
